# Experimental data: ChEMBL document CHEMBL4007399, “Discovery and Synthesis of a Phosphoramidate Prodrug of a Pyrrolo[2,1-f][triazin-4-amino] Adenine C-Nucleoside (GS-5734) for the Treatment of Ebola and Emerging Viruses” (J Med Chem, 2017)
# pEC50: −log10 of the molar value.
# Columns and labels:
# Hepatitis C virus = assay: Antiviral activity against Hepatitis C virus genotype 1b infected in human HuH7 cells preincubated with cells for 3 days followed by viral infection by luciferase assay; assay type: functional, cell-based, Hepacivirus hominis; details: Hepatitis C virus, genotype 1b, Huh-7
# [1] = Cytotoxicity against human Hep2 cells assessed as reduction in cell viability after 4 to 5 days by Cell-Titer Glo assay; assay type: cell-based, HEp-2; details: HEp-2 cells
# [2] = Cytotoxicity against human HuH7 cells assessed as reduction in cell viability after 3 days by calcein-AM dye based fluorescence assay; parameters: species or system Huh-7; details: Huh-7 cells
# [3] = Cytotoxicity against human MT4 cells assessed as reduction in cell viability after 4 to 5 days by Cell-Titer Glo assay; assay type: cell-based; details: MT4 cells
# [4] = Lipophilicity, log D of the compound after 30 mins by HPLC/UV method; assay type: physicochemical
# Ebolavirus [5] = assay: Antiviral activity against Ebolavirus Kikwit infected in human HeLa cells assessed as reduction in viral glycoprotein levels preincubated with cells for 2 hrs followed by viral infection measured after 48 hrs by immunostaining based assay; assay type: functional, cell-based; details: Orthoebolavirus, Kikwit, HeLa
# Ebolavirus [6] = assay: Antiviral activity against GFP-fused Ebolavirus infected in TERT-immortalized HMVEC assessed as reduction in viral replication preincubated with cells followed by viral infection measured after 3 to 4 days by fluorescence assay; assay type: functional; details: Orthoebolavirus, HMVEC
# [7] = Half life in human plasma at 2 uM by LC/MS/MS analysis; assay type: ADME, cell-free
# Human orthopneumovirus = assay: Antiviral activity against Respiratory syncytial virus A2 infected in human Hep2 cells assessed as reduction of virus-induced cytopathic effect after 4 days by Cell-Titer Glo assay; assay type: functional, cell-based; details: human respiratory syncytial virus, A2, HEp-2, 96 h
compound,measurement,setting,value
Nc1ncnn2c([C@@H]3O[C@H](CO)[C@@H](O)[C@H]3O)ccc12,pEC50,Hepatitis C virus,8.46
same,CC50,[1],0.038 µM
same,CC50 at 72 h,[2],0.15 µM
same,CC50,[3],< 0.01 µM
CCC(CC)OC(=O)[C@H](C)NP(=O)(OC[C@H]1O[C@@](C#N)(c2ccc3c(N)ncnn23)[C@H](O)[C@@H]1O)Oc1ccccc1 (some centres undefined),logD at 0.5 h,[4],1.6
same,pEC50,Ebolavirus [5],5.74
same,pEC50,Ebolavirus [6],6.07
same,CC50,[3],> 100 µM
same,half-life at 2 µM,[7],14.3 h
CCOC(=O)[C@H](C)NP(=O)(N[C@@H](C)C(=O)OCC)OC[C@H]1O[C@@](C#N)(c2ccc3c(N)ncnn23)[C@H](O)[C@@H]1O,logD at 0.5 h,[4],< 0.3
same,pEC50,Ebolavirus [5],4.69
same,pEC50,Ebolavirus [6],5.04
same,CC50,[3],> 53 µM
CCC(CC)COC(=O)[C@H](C)NP(=O)(OC[C@H]1O[C@@](C#N)(c2ccc3c(N)ncnn23)[C@](C)(O)[C@@H]1O)Oc1ccccc1 (some centres undefined),pEC50,Ebolavirus [5],4.57
same,pEC50,Ebolavirus [6],4.89
same,pEC50,Human orthopneumovirus,< 4.30
same,pEC50,Hepatitis C virus,6.43
same,CC50,[1],> 50 µM
same,CC50 at 72 h,[2],> 44 µM
same,CC50,[3],1.4 µM
CC(C)OC(=O)[C@H](C)NP(=O)(OC[C@H]1O[C@@](C#N)(n2ccc(N)nc2=O)[C@H](O)[C@@H]1O)Oc1ccccc1 (some centres undefined),pEC50,Ebolavirus [5],< 4.70
same,pEC50,Human orthopneumovirus,4.20
same,pEC50,Hepatitis C virus,5.60
same,CC50,[1],> 100 µM
same,CC50 at 72 h,[2],> 44 µM
same,CC50,[3],53 µM
C[C@@]1(c2ccc3c(N)ncnn23)O[C@H](CO)[C@@H](O)[C@H]1O,pEC50,Ebolavirus [6],< 5.00
same,pEC50,Human orthopneumovirus,5.26
same,pEC50,Hepatitis C virus,4.42
same,CC50,[1],93 µM
same,CC50 at 72 h,[2],62 µM
same,CC50,[3],4.5 µM
C[C@H](NP(=O)(OC[C@H]1O[C@@](C#N)(c2ccc3c(N)ncnn23)[C@H](O)[C@@H]1O)Oc1ccccc1)C(=O)OC(C)(C)C (some centres undefined),logD at 0.5 h,[4],1.3
same,pEC50,Ebolavirus [5],4.52
same,pEC50,Ebolavirus [6],5.42
same,CC50,[3],> 100 µM
same,half-life at 2 µM,[7],26.4 h
C[C@H](N[P@](=O)(OC[C@H]1O[C@@](C#N)(c2ccc3c(N)ncnn23)[C@H](O)[C@@H]1O)Oc1ccccc1)C(=O)OCC(C)(C)C,logD at 0.5 h,[4],1.7
same,pEC50,Ebolavirus [5],6.77
same,pEC50,Ebolavirus [6],7.04
same,CC50,[3],3 µM
same,half-life at 2 µM,[7],11.7 h
CCOC(=O)[C@H](C)NP(=O)(OC[C@H]1O[C@@](C#N)(c2ccc3c(N)ncnn23)[C@H](O)[C@@H]1O)Oc1ccccc1 (some centres undefined),logD at 0.5 h,[4],0.6
same,pEC50,Ebolavirus [5],5.62
same,pEC50,Ebolavirus [6],6.20
same,CC50,[3],13 µM
same,half-life at 2 µM,[7],26.4 h
C#C[C@@]1(c2ccc3c(N)ncnn23)O[C@H](COP(=O)(N[C@@H](C)C(=O)OCC(CC)CC)Oc2ccccc2)[C@@H](O)[C@H]1O (some centres undefined),pEC50,Ebolavirus [6],5.41
same,pEC50,Human orthopneumovirus,5.96
same,pEC50,Hepatitis C virus,5.16
same,CC50,[1],> 100 µM
same,CC50 at 72 h,[2],> 44 µM
same,CC50,[3],> 32 µM
N#C[C@@]1(n2cnc3c(N)ncnc32)O[C@H](CO)[C@@H](O)[C@H]1O,pEC50,Ebolavirus [6],4.25
same,pEC50,Human orthopneumovirus,< 4.00
same,pEC50,Hepatitis C virus,< 4.36
same,CC50,[1],> 100 µM
same,CC50 at 72 h,[2],> 88 µM
same,CC50,[3],> 53 µM
N#C[C@@]1(n2ccc(N)nc2=O)O[C@H](CO)[C@@H](O)[C@H]1O,pEC50,Ebolavirus [5],< 4.30
same,pEC50,Ebolavirus [6],< 5.00
same,pEC50,Human orthopneumovirus,5.14
same,pEC50,Hepatitis C virus,4.92
same,CC50,[1],> 100 µM
same,CC50 at 72 h,[2],> 44 µM
same,CC50,[3],> 57 µM
C#C[C@@]1(c2ccc3c(N)ncnn23)O[C@H](CO)[C@@H](O)[C@H]1O,pEC50,Human orthopneumovirus,< 3.70
same,pEC50,Hepatitis C virus,< 4.06
same,CC50,[1],> 200 µM
same,CC50 at 72 h,[2],> 88 µM
same,CC50,[3],120 µM
C[C@@]1(O)[C@H](O)[C@@H](CO)O[C@@]1(C#N)c1ccc2c(N)ncnn12,pEC50,Ebolavirus [5],4.30
same,pEC50,Ebolavirus [6],< 5.00
same,pEC50,Human orthopneumovirus,< 4.00
same,pEC50,Hepatitis C virus,< 4.36
same,CC50,[1],> 100 µM
same,CC50 at 72 h,[2],> 44 µM
same,CC50,[3],> 57 µM
N#C[C@@]1(c2ccc3c(N)ncnn23)O[C@H](CO)[C@@H](O)[C@H]1F,pEC50,Human orthopneumovirus,< 4.00
same,pEC50,Hepatitis C virus,< 4.36
same,CC50 at 72 h,[2],> 44 µM
same,CC50,[3],32 µM
CC(C)OC(=O)[C@H](C)N[P@](=O)(OC[C@H]1O[C@@](C#N)(c2ccc3c(N)ncnn23)[C@](C)(O)[C@@H]1OC(=O)C(C)C)Oc1ccccc1 [GS-6620],pEC50,Ebolavirus [5],< 4.70
same,pEC50,Ebolavirus [6],4.40
same,pEC50,Human orthopneumovirus,< 4.70
same,pEC50,Hepatitis C virus,6.51
same,CC50,[1],95 µM
same,CC50 at 72 h,[2],51 µM
same,CC50,[3],7.8 µM
